A word on the IC50: it is the concentration that gives 50% inhibition.

This is an account of results in patent US20090030065A1, “Use of Pde1c and Inhibitors Thereof” (NYCOMED GmbH, priority 2005, published 2009).

What all share (format): biochemical
For assay [1], the target named is human recombinant PDE1C1 (Homo sapiens, UniProt Q14123). The assay can be described thus: Inhibition of recombinant PDE activity, SPA test: PDE1C1. The settings on record: for IC50: human recombinant enzyme, read-out: IC50 on PDE 1C1; for Selectivity for PDE1C1 versus other PDE family members tested: see Tab. 1. The protocol:
Measurement of the Inhibition of Phosphodiesterase Activity Phosphodiesterase activity is measured in a modified SPA (scintillation proximity assay) test, supplied by Amersham Biosciences (see procedural instructions “phosphodiesterase [3H]cAMP SPA enzyme assay, code TRKQ 7090”), carried out in 96-well microtitre plates (MTP's): The test volume is 100 μl and contains 20 mM Tris buffer (pH 7.4), 0.1 mg of BSA (bovine serum albumin)/ml, 5 mM Mg^2+, 0.5 μM cGMP or cAMP (including about 50,000 cpm of [3H]cGMP or [3H]cAMP as a tracer; whether to use cAMP or cGMP depends on the substrate-specificity of the phosphodiesterase measured), 1 μl of the respective substance dilution in DMSO and sufficient recombinant PDE to ensure that 10-20% of the cGMP or cAMP is converted under the said experimental conditions. […] After a preincubation of 5 min at 37° C., the reaction is started by adding the substrate (cGMP) and the assay is incubated for a further 15 min; after that, it is stopped by adding SPA beads (50 μl). In accordance with the manufacturer's instructions, the SPA beads had previously been resuspended in water, but were then diluted 1:3 (v/v) in water; the diluted solution also contains 3 mM IBMX to ensure a complete PDE activity stop. After the beads have been sedimented (>30 min), the MTP's are analyzed in commercially available luminescence detection devices. The corresponding IC50 values of the compounds for the inhibition of PDE activity are determined from the concentration-effect curves by means of non-linear regression.
(§1) Compound A and B are analyzed for inhibition of PDE family members as described.

Assay [2] concerns the target human recombinant PDE3A1 (Homo sapiens, UniProt Q14432). As to the kind of experiment: Inhibition of recombinant PDE activity, SPA test: PDE3A1. The conditions noted are these: human recombinant enzyme; read-out: IC50 on PDE 3A1. As to the method: (§2) Measurement of the Inhibition of Phosphodiesterase Activity Phosphodiesterase activity is measured in a modified SPA (scintillation proximity assay) test, supplied by Amersham Biosciences (see procedural instructions “phosphodiesterase [3H]cAMP SPA enzyme assay, code TRKQ 7090”), carried out in 96-well microtitre plates (MTP's): The test volume is 100 μl and contains 20 mM Tris buffer (pH 7.4), 0.1 mg of BSA (bovine serum albumin)/ml, 5 mM Mg^2+, 0.5 μM cGMP or cAMP (including about 50,000 cpm of [3H]cGMP or [3H]cAMP as a tracer; whether to use cAMP or cGMP depends on the substrate-specificity of the phosphodiesterase measured), 1 μl of the respective substance dilution in DMSO and sufficient recombinant PDE to ensure that 10-20% of the cGMP or cAMP is converted under the said experimental conditions. […] After a preincubation of 5 min at 37° C., the reaction is started by adding the substrate (cGMP) and the assay is incubated for a further 15 min; after that, it is stopped by adding SPA beads (50 μl). […] After the beads have been sedimented (>30 min), the MTP's are analyzed in commercially available luminescence detection devices. The corresponding IC50 values of the compounds for the inhibition of PDE activity are determined from the concentration-effect curves by means of non-linear regression.
as §1

In assay [3] the target is human recombinant PDE10A (Homo sapiens, UniProt Q9Y233). The assay can be described thus: Inhibition of recombinant PDE activity, SPA test: PDE10A. The conditions noted are these: human recombinant enzyme; read-out: IC50 on PDE 10A. As to the method: as §2, §1
Chain of human recombinant PDE10A (Q9Y233 290-1055 limits assumed): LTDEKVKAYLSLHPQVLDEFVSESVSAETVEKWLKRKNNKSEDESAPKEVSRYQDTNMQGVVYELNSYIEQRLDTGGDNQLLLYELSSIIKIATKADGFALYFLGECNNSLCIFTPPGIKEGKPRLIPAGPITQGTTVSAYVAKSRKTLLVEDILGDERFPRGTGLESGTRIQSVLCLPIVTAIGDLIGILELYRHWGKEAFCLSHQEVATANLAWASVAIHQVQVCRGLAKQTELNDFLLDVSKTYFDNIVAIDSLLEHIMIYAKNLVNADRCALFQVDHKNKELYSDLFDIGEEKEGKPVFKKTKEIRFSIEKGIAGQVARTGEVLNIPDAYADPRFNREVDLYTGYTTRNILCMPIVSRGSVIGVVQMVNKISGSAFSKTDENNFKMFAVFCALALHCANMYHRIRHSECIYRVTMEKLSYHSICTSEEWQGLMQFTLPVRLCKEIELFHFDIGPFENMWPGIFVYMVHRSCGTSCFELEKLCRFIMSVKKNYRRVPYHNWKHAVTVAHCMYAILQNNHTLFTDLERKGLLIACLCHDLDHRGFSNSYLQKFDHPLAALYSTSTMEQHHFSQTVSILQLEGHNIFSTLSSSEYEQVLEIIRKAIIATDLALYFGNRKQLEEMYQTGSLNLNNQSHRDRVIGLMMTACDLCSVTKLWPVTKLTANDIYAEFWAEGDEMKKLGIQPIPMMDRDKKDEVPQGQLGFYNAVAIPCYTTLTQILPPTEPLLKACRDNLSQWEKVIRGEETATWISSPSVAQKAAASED
The target of assay [4] is human recombinant PDE4B2 (Homo sapiens, UniProt Q07343). As to the kind of experiment: Inhibition of recombinant PDE activity, SPA test: PDE4B2. The settings on record: human recombinant enzyme; read-out: IC50 on PDE 4B2. The protocol: as §2, §1
Chain of human recombinant PDE4B2 (Q07343 1-564 isoform Q07343-2): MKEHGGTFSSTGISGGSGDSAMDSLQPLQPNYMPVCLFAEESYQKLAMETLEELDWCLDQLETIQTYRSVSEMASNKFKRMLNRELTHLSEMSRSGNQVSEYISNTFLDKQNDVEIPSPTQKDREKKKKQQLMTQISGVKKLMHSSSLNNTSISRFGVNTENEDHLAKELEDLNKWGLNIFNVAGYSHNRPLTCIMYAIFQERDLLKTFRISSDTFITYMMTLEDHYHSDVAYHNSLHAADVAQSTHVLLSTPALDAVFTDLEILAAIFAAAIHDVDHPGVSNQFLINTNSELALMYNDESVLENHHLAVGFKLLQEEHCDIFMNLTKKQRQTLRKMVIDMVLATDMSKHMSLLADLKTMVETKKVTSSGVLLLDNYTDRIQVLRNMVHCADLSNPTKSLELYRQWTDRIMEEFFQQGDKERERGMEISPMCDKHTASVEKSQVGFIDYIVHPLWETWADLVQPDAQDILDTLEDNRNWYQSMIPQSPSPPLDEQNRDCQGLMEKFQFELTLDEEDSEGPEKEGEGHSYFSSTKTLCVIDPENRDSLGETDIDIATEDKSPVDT
For assay [5], the target named is human recombinant PDE11A4 (Homo sapiens, UniProt Q9HCR9). The assay can be described thus: Inhibition of recombinant PDE activity, SPA test: PDE11A4. The settings on record: human recombinant enzyme; read-out: IC50 on PDE 11A4. As to the method:
as §2, §1

The target in assay [6] is human recombinant PDE2A3 (Homo sapiens, UniProt O00408). The assay can be described thus: Inhibition of recombinant PDE activity, SPA test: PDE2A3. The settings on record: human recombinant enzyme; read-out: IC50 on PDE 2A3. The protocol: as §2, §1
Chain of human recombinant PDE2A3 (O00408 whole entry): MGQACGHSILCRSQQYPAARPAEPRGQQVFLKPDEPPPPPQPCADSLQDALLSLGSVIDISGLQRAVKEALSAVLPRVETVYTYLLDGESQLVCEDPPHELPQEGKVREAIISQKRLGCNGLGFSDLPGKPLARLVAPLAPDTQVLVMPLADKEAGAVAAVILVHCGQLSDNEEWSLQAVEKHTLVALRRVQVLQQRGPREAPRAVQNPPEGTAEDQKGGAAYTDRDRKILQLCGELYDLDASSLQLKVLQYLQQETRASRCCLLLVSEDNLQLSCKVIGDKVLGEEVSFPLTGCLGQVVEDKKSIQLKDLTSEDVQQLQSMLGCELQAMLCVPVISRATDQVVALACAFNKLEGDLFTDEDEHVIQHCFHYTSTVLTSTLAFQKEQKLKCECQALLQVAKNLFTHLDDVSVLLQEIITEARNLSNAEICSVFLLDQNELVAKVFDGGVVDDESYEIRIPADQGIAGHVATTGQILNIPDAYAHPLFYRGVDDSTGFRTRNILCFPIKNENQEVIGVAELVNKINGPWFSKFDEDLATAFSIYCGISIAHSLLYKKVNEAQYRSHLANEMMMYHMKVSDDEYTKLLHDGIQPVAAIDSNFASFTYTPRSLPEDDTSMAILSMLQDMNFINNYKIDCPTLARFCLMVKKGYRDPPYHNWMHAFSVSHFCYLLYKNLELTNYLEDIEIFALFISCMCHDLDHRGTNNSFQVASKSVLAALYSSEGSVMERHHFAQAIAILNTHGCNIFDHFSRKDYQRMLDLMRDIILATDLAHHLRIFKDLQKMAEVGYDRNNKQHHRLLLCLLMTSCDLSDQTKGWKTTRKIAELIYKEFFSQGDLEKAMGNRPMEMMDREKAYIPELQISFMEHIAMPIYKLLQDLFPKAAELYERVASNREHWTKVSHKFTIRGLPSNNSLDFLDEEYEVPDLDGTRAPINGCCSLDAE
Assay [7] concerns the target human recombinant PDE5A1 (Homo sapiens, UniProt O76074). As to the kind of experiment: Inhibition of recombinant PDE activity, SPA test: PDE5A1. The conditions noted are these: human recombinant enzyme; read-out: IC50 on PDE 5A1. As to the method:
as §2, §1

In assay [8] the test system is PDE3. The assay can be described thus: PDE isoenzyme activities in cellular lysates: PDE3. The conditions noted are these: 10 μM, 0.5 μM cyclic AMP. The protocol: (§3) Cells (1-3×10^6) were washed twice in phosphate buffered saline (4° C.) and resuspended in 1 ml homogenization buffer (137 mM NaCl, 2.7 mM KCl, 8.1 mM Na2HPO4, 1.5 mM KH2PO4, 10 mM HEPES, 1 mM EGTA, 1 mM MgCl2, 1 mM-mercaptoethanol, […], […], 50 mM phenylmethylsulfonyl fluoride, 10 mM soybean trypsin inhibitor, 2 mM benzamidine, pH 8.2). Cells were disrupted by sonication (Branson sonifier, 3×15 s) and lysates were immediately used for phosphodiesterase (PDE) activity measurements. PDE activities were assessed in cellular lysates as described (Thompson & Appleman, 1979) with some modifications (Bauer & Schwabe, 1980). The assay mixture (final volume […]) contained (mM): Tris HCl 30; pH 7.4, MgCl2 5, 0.5 μM either cyclic AMP or cyclic GMP as substrate including [^3H]cAMP or [^3H]cGMP (about 30 000 c.p.m. per well), […], PDE isoenzyme-specific activators and inhibitors as described below and cellular lysates. Incubations were performed for 60 min at 37° C. and reactions were terminated by adding […] 0.2 M HCl per well. Assays were left on ice for 10 min and then […] 5′-nucleotidase (Crotalus atrox) was added. […] Columns were eluted with 2 ml 30 mM ammonium formiate (pH 6.0) and radioactivity in the eluate was counted. […] Briefly, PDE4 was calculated as the difference of PDE activities at 0.5 μM cyclic AMP in the presence and absence of 1 μM Piclamilast. […]

Assay [9] addresses T1, PDE2 (Homo sapiens, UniProt O00408).
T1 construct: endogenous in cells
As to the kind of experiment: PDE isoenzyme activities in cellular lysates: PDE2. The settings on record: 100 nM. The protocol:
as §3

For assay [10], the system named is PDE4. As to the kind of experiment: PDE isoenzyme activities in cellular lysates: PDE4. The settings on record: 1 μM, 0.5 μM cyclic AMP. The protocol:
as §3

The target in assay [11] is T2, PDE5 (Homo sapiens, UniProt O76074).
T2 construct: PDE activities were assessed in cellular lysates; endogenous in cells
The assay can be described thus: PDE isoenzyme activities in cellular lysates: PDE5. The settings on record: 100 nM, 0.5 μM cyclic GMP.
Procedure: Cells (1-3×10^6) were washed twice in phosphate buffered saline (4° C.) and resuspended in 1 ml homogenization buffer (137 mM NaCl, 2.7 mM KCl, 8.1 mM Na2HPO4, 1.5 mM KH2PO4, 10 mM HEPES, 1 mM EGTA, 1 mM MgCl2, 1 mM-mercaptoethanol, 5 mM pepstatin A, 10 mM leupeptin, 50 mM phenylmethylsulfonyl fluoride, 10 mM soybean trypsin inhibitor, 2 mM benzamidine, pH 8.2). Cells were disrupted by sonication (Branson sonifier, 3×15 s) and lysates were immediately used for phosphodiesterase (PDE) activity measurements. PDE activities were assessed in cellular lysates as described (Thompson & Appleman, 1979) with some modifications (Bauer & Schwabe, 1980). The assay mixture (final volume 200 ml) contained (mM): Tris HCl 30; pH 7.4, MgCl2 5, 0.5 μM either cyclic AMP or cyclic GMP as substrate including [^3H]cAMP or [^3H]cGMP (about 30 000 c.p.m. per well), 100 mM EGTA, PDE isoenzyme-specific activators and inhibitors as described below and cellular lysates. Incubations were performed for 60 min at 37° C. and reactions were terminated by adding 50 ml 0.2 M HCl per well. Assays were left on ice for 10 min and then 25 mg 5′-nucleotidase (Crotalus atrox) was added. Following an incubation for 10 min at 37° C. assay mixtures were loaded onto QAE-Sephadex A25 columns (1 ml bed volume). Columns were eluted with 2 ml 30 mM ammonium formiate (pH 6.0) and radioactivity in the eluate was counted. […]

Chain of human recombinant PDE1C1 (Q14123 1-634 isoform Q14123-2): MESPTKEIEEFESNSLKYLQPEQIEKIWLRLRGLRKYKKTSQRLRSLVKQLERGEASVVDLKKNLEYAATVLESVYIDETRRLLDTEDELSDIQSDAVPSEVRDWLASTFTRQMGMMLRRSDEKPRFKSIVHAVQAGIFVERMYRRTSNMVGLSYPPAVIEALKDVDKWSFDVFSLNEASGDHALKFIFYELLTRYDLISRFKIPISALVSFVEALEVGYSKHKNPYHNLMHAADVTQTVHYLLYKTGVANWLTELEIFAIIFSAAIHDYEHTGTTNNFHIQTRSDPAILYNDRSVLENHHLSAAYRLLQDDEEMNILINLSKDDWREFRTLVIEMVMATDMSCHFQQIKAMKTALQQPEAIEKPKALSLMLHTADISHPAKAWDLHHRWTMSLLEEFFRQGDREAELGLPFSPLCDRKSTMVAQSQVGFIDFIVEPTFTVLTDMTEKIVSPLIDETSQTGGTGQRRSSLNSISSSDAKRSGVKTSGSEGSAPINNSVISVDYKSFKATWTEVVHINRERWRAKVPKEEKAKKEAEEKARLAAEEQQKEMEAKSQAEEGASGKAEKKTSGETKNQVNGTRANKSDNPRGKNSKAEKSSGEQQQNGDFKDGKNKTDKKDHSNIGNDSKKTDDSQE
Chain of human recombinant PDE3A1 (Q14432 whole entry): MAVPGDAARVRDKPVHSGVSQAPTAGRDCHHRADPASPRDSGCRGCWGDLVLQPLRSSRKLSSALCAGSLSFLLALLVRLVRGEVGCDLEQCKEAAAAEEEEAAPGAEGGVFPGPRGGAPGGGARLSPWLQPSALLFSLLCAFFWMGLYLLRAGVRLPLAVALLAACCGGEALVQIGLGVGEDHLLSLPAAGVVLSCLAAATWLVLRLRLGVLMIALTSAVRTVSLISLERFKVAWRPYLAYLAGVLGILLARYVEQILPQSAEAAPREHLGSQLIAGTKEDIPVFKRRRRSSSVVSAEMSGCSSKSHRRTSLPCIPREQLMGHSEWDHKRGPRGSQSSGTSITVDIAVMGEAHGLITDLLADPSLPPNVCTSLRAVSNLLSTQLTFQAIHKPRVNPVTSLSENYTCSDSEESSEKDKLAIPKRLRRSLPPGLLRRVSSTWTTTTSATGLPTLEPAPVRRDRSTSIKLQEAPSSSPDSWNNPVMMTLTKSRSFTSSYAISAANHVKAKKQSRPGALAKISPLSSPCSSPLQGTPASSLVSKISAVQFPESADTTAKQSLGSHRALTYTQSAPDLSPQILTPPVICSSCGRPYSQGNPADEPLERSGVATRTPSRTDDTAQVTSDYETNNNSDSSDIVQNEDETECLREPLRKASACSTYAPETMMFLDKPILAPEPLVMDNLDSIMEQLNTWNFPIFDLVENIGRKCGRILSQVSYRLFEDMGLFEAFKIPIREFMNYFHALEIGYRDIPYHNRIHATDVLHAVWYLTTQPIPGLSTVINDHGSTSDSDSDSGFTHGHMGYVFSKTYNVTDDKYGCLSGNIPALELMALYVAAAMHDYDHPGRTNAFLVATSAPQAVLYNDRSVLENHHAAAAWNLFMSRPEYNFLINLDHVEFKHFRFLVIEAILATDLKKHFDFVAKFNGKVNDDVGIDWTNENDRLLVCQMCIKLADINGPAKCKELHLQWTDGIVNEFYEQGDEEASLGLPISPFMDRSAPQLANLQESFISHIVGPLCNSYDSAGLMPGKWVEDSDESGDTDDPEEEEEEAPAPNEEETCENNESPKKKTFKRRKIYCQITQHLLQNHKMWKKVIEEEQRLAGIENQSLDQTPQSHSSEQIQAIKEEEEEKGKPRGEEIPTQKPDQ
Chain of human recombinant PDE11A4 (Q9HCR9 whole entry): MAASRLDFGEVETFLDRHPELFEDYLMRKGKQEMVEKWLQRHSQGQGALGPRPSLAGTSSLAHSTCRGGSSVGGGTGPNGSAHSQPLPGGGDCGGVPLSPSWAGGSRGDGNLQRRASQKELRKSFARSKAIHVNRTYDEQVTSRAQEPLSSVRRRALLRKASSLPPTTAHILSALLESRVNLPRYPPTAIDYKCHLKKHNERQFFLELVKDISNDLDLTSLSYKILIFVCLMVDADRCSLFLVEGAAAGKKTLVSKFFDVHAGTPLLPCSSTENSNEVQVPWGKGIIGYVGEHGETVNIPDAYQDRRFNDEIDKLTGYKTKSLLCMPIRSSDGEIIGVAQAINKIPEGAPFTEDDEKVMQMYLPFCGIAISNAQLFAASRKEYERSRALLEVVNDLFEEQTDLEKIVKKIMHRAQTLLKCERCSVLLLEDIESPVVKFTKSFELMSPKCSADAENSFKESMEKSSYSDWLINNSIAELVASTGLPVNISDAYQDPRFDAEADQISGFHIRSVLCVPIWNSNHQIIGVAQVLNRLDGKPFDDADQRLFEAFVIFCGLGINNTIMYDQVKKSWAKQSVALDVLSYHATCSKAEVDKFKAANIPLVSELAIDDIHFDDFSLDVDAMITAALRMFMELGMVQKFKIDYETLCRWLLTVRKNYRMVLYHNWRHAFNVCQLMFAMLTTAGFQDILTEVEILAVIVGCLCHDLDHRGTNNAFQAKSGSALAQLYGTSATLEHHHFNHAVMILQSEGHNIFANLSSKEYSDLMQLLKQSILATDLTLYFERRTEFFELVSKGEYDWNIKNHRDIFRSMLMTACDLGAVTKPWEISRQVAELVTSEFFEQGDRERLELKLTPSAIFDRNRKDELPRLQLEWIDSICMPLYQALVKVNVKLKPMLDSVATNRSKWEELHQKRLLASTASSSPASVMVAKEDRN
T1 sequence (O00408 whole entry): as the sequence (O00408 whole entry) above

As for `CC(C)(C)CC(C)(C)c1ccc(OCC(=O)N/N=C/c2ccc(-c3cccc(C(=O)O)c3)o2)c([N+](=O)[O-])c1` [Compound A], the “IC50 value on human recombinant PDE1C1, in words” value in assay [1] was “in the nanomolar range”. Further, the IC50 is 0.083 µM in assay [1]; over 100 µM in assay [2]; over 100 µM in assay [3]; over 100 µM in assay [4]; over 100 µM in assay [5]; over 100 µM in [6]. Besides, the IC50 in assay [7] is over 100 µM. Moreover, the “Selectivity for PDE1C1 versus other PDE family members tested” value in assay [1] is on record as “selective versus other PDE family members tested”.

As to `Cc1ccc(/C(O)=C2/C(=O)C(=O)N(c3ccccc3)C2=S)cc1` [Compound B, 4-[Hydroxy(4-methylphenyl)methylidene]-1-phenyl-5-thioxopyrrolidine-2,3-dione], the “IC50 value on human recombinant PDE1C1, in words” value in assay [1] is listed as “in the nanomolar range”. Also, the IC50 was 0.1 µM in assay [1]; over 100 µM in [2]; 77 µM in assay [3]; 9.3 µM in assay [4]; 22 µM in assay [5]; 13 µM in [6]. Moreover, in [7], the IC50 is 16 µM. For the same compound, in assay [1], the “Selectivity for PDE1C1 versus other PDE family members tested” value was “selective versus other PDE family members tested”.

`CC1CC(=O)NN=C1c1cc(-n2ccnc2)cs1` (stereo not shown) [Motapizone]: the “Block of PDE3 activity” value in [8] is recorded as “completely blocked”.

`COc1ccc(Cc2nc3c(ncn3C(CCCc3ccccc3)C(C)=O)c(=O)[nH]2)cc1OC` (stereo not shown) [PDP]: in assay [9], the “Inhibition of cyclic GMP-induced cyclic AMP degrading activity increment (PDE2)” value is listed as “completely inhibited”.

Regarding `COc1ccc(C(=O)Nc2c(Cl)cncc2Cl)cc1OC1CCCC1` [Piclamilast], the “Block of PDE4 activity” value in [10] is listed as “completely blocked”.

On to `CCCc1nn(C)c2c(=O)[nH]c(-c3cc(S(=O)(=O)N4CCN(C)CC4)ccc3OCC)nc12` [Sildenafil], for which the “Block of PDE5 activity” value in assay [11] is given as “completely blocked”.
